From article PMC8313270 (Microbial Biotechnology, 2021) come the findings set out here.

SMILES strings stand for the structures.

The test system of the test is StdA-His. Kind of test: toxoflavin degradation assay, Lineweaver-Burk plot. It counts as biochemical, Sphingomonas adhaesiva. Conditions: 50 mM sodium phosphate pH 8.0, 5 mM DTT, 28°C, no metal added.

Usually Km stands for the substrate concentration at which the rate is half of its maximum. Take `Cn1ncnc2c(=O)n(C)c(=O)nc1-2` [toxoflavin, 1,6‐dimethylpyrimido[5,4‐e]‐1,2,4‐triazine‐5,7(1H,6H) dione]: the Michaelis constant (Km) came out at 65 µM.
